One data set concerns SARS-CoV-2. In kind it is cell-based. To be noted: Ethanol 35%.
The test system of a further data set is RSV. The data set is classed as cell-based, respiratory syncytial virus.
Data set [1] relates to Influenza(H1N1)pdm09 virus. The data set is described as follows: Neutralization/virucidal assay, Example 8. In kind it is cell-based, influenza A(H1N1)pdm09. The following applies: Ethanol 70%.
The subject of another data set is PIV-3. The data set is classed as cell-based, parainfluenza virus type 3.
The test system of another data set is HRV-14. In kind it is cell-based, human rhinovirus.
In the next data set the test system is Ad-5. In kind it is cell-based, Adenovirus Type 5.
The next data set relates to A549. Nature of the data set: Toxicity controls, Example 8. The data set is classed as cell-based. The following applies: Ethanol 70%; Ad-5 test; highest dilution with full (80-100%) cytotoxicity.
The next data set concerns MA-104. The data set is described as follows: Toxicity controls, Example 8. The following applies: Ethanol 70%, highest dilution with full (80-100%) cytotoxicity.
The test system of a further data set is HeLa. The data set is described as follows: Toxicity controls, Example 8. To be noted: Ethanol 70%; HRV-14 test; highest dilution with full (80-100%) cytotoxicity.
The test system of a further data set is hCoV-229E. The data set is described as follows: Neutralization/virucidal assay, Example 8.

Like-named read-outs stand apart in the source and are kept apart here. Bounds are passed on as bounds.

The record followed here is patent publication US12064455B2, “Free fatty acids and methods of manufacture and use for treating coronavirus and other viral respiratory infections” (priority 2020, dated 2024).

As for `CCO` [Ethanol], the LRV with SARS-CoV-2 (assay replicate 1) is on record as >3.6−; in the data set on SARS-CoV-2 (assay replicate 2) it was >3.3; with RSV, 2.0; in data set [1] (contact time 10-min, vs virus control), 4.0; with PIV-3 it was >2.3; in the data set on Ad-5, 3.4. The LRV in the data set with hCoV-229E (Ethanol 70%, contact time 10-min, vs virus control) is recorded as >2.0. Also, the “Virus Titer” value was <0.7 Log10CCID50 of virus per 0.1 ml in the data set on SARS-CoV-2 (assay replicate 1); <0.7 Log10CCID50 of virus per 0.1 ml in the data set on SARS-CoV-2 (assay replicate 2); 1.0 log10 CCID50 of virus per 0.1 mL in the data set with RSV; 3.0 log10 CCID50 of virus per 0.1 mL in [1] (contact time 10-min at 22 ± 2° C.); 4.5 log10 CCID50 of virus per 0.1 mL in the data set with HRV-14; 5.3 log10 CCID50 of virus per 0.1 mL in the data set on Ad-5. Moreover, the “Virus Titer” value in the data set on hCoV-229E is <0.7 log10 CCID50 of virus per 0.1 mL. For the same compound, the Toxicity entry in the data set on A549, in the data set on MDCK, in the data set on Huh7, in the data set with MA-104 (PIV-3 test), in the data set on MA-104 (RSV test) and with HeLa was “None” each time.
